According to publication PMC9837035 (Nature Communications, 2023):
Several values for one entry are separate records, joined by “and”; a condition that tells them apart may be missing. Identical values can stand only once. Like-named read-outs stand apart in the source and are kept apart here.

What was measured:
[1] = test system: β- and γ-globin genes in HUDEP-2 cells; test: RT-qPCR of β- and γ-globin in HUDEP-2 cells; assay type: cell-based, human
Experimental: (§1) Total cellular RNA was prepared using the Tissue Total RNA Mini Kit (FAVORGEN), and cDNA was synthesized using ReverTra Ace Master Mix (TOYOBO). Expression of target genes was analyzed using THUNDERBIRD SYBR qPCR Mix (TOYOBO) on a CFX Connect Real Time System (Bio-Rad). The qPCR data were acquired on CFX Maestro (Bio-Rad). Primers are listed in Supplementary Table 10. GAPDH was used as a reference. Primers were purchased from INTEGRATED DNA TECHNOLOGIES or FASMAC.

BGLT3 RNA in CD34+ cells = test: RT-qPCR of BGLT3 in CD34+ cells; assay type: cell-based, human; settings: for BGLT3 expression in CD34+ cells treated with hydroxyurea: relative to DMSO = 1, replicate values; for BGLT3 expression: primary human CD34+ cells
Experimental: HUDEP-2 cells and HiDEP-1 cells were grown in Stemline II Hematopoietic Stem Cell Expansion Medium (Sigma) supplemented with 50 ng/mL recombinant stem cell factor (SCF; R&D systems), 3 IU/mL recombinant erythropoietin (EPO; Kyowa Kirin), 1 μM dexamethasone (Dex; Sigma), and 1 μg/mL doxycycline (Sigma). A total of 1 × 10^5 human CD34^+ progenitor cells derived from bone marrow or peripheral blood (Lonza) were cultured on 35-mm dishes (BD Falcon) in StemSpan SFEMII medium with 50 ng/mL SCF, 5 IU/mL EPO, and 10 ng /mL interleukin 3 (IL-3; R&D systems). The medium was changed on day 4 to SCF, EPO, and 1 μM Dex, and the cells were transferred to 60-mm dishes (BD Falcon). Seven days after the onset of differentiation, cells were counted and 1 × 10^6 cells were re-plated on 100-mm dishes (BD Falcon) with SCF, EPO, and Dex. The rat myoblast cell line H9c2, HEK293T, and PLAT-E cells were maintained in Dulbecco’s modified Eagle’s medium (Thermo Fisher Scientific) supplemented with 10% heat-inactivated fetal bovine serum (FBS) and penicillin/streptomycin. All cells were cultured at 37 °C under 5% CO2.
as §1

G9a SET domain = target: T1, G9a SET domain (Homo sapiens, UniProt Q96KQ7); test: Surface plasmon resonance (SPR); assay type: binding
T1 construct: the human G9a SET domain (residues 913–1193) was synthesized using the E. coli cell-free synthesis method; made in house; host or cells: E. coli cell-free synthesis
T1 sequence (Q96KQ7 913-1193): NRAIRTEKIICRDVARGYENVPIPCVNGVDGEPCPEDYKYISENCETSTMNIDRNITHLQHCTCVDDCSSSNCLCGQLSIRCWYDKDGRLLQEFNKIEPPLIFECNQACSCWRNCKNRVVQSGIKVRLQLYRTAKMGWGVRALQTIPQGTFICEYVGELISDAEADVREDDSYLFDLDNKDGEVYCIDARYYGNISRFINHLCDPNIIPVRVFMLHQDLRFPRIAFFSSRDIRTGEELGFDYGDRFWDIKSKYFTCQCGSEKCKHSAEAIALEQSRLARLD
Experimental: For crystal structure analysis, the human G9a SET domain (residues 913–1193) was synthesized using the E. coli cell-free synthesis method[48],[49] and purified in the same manner as described previously, except that the final size-exclusion column chromatography using HiLoad Superdex 200 16/60 (GE Healthcare) was equilibrated with 20 mM Tris-HCl buffer (pH 8.0) containing 400 mM NaCl. […] Crystals were grown by the hanging drop method at 293 K, where the sample solution was mixed with an equal volume of a reservoir solution containing 100 mM Bis-Tris propane (pH 7.4), 200 mM sodium formate, 10% ethylene glycol, and 25% PEG 3350. The harvested crystals were coated with Paratone-N oil (Hampton Research) before being flash-cooled in liquid nitrogen. Diffraction data were collected at the X06DA beamline of the Swiss Light Source, Paul Scherrer Institut (Villigen, Switzerland), and were processed and scaled with XDS[51], AIMLESS[52], and other CCP4 programs. The structure of G9a with UNC0638 (PDB ID: 3RJW)[23] was used for the initial phase determination by the molecular replacement method with Phaser[53]. The topology and parameter file for the inhibitor was generated with eLBOW[54] from SMILES strings. Structure refinement was carried out with Phenix[55] and manual model building using COOT[56]. Crystallographic statistics are summarized in Supplementary Table 3.
SPR was performed using a Biacore T200 (Cytiva) and Series S Sensorchip SA (Cytiva, BR100531) at the temperature of 25 °C. A solution of PBS, 0.005% TWEEN20 (Sigma, P9416), 0.5 mM TCEP (Nacalai Tesque, 06342-21), and 2% DMSO (Sigma, 276855) was filtered with a 0.22-μm filter and used as the running buffer. Kinetic measurements were carried out at a flow rate of 30 μL/min, and the association and dissociation phases were monitored for 120 s and 120–300 s, respectively. The G9a SET domain was biotinylated by using NHS-PEG4-Biotin (Thermo, 39259), and captured to flow cells 2, 3, and 4 with immobilization levels of ~2300 RU. No specific treatment was applied to the reference surface (flow cell 1). To prevent oxidation of the immobilized protein, a solution containing 1 μM ZnCl2 and 5 mM TCEP was injected at a flow rate of 10 μL/min for 60 s before each set of kinetic measurements. The extra wash command was executed after each measurement cycle with 50% DMSO aqueous solution. To correct for bulk responses, solvent correction was performed once after all kinetics runs by using running buffer containing 1–3% DMSO. The sensorgrams obtained from the three flow cells were analyzed individually by Biacore T200 Evaluation Software (Cytiva). The dissociation constant (KD) and binding kinetic parameters were calculated by a curve fit to a built-in 1:1 binding model.

SMYD1 = target: T2, SMYD1 (Homo sapiens, UniProt Q8NB12); test: Radioisotope-based methyltransferase assay (selectivity); assay type: biochemical
T2 construct: purchased Reaction Biology
T2 sequence (Q8NB12 1-490): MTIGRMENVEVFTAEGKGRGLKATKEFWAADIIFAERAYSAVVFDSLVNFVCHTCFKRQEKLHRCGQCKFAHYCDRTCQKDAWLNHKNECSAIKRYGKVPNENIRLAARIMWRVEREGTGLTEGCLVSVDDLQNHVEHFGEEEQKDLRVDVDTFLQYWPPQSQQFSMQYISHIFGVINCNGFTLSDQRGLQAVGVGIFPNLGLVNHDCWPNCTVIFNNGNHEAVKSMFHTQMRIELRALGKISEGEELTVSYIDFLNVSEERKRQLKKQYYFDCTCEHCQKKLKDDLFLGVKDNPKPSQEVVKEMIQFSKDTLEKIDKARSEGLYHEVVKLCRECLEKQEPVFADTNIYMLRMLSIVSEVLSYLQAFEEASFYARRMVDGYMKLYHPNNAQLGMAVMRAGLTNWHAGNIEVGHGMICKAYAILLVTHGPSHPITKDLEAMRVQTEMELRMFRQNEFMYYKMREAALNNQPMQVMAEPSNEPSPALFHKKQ

[2] = Parental cells, relative to Parental DMSO = 1, replicate values
[3] = single run, read-out: Dissociation constant (Kd)
[4] = single agents or combination, relative to DMSO = 1, replicate values

NC(=O)NO [Hydroxyurea, hydroxyurea]
β-globin in hydroxyurea-treated HUDEP-2 cells [1, 2]: 1.499 and 1.443 and 1.4392
γ-globin in hydroxyurea-treated HUDEP-2 cells [1, 2]: 3.312 and 3.051 and 3.256
BGLT3 expression in CD34+ cells treated with hydroxyurea (BGLT3 RNA in CD34+ cells; DAY7, 10 μM): 1.048 and 1.203 and 1.026
BGLT3 expression in CD34+ cells treated with hydroxyurea (BGLT3 RNA in CD34+ cells; DAY7, 50 μM): 1.743 and 1.82 and 2.054
BGLT3 expression in CD34+ cells treated with hydroxyurea (BGLT3 RNA in CD34+ cells; DAY9, 10 μM): 1.52 and 1.518 and 1.0769
BGLT3 expression in CD34+ cells treated with hydroxyurea (BGLT3 RNA in CD34+ cells; DAY9, 50 μM): 2.568 and 2.893 and 2.233
BGLT3 expression (BGLT3 RNA in CD34+ cells): promoted BGLT3 expression

Cc1c(C(=O)NC(CCC2CC2)C(=O)Nc2ccc(C#N)cc2)[nH]c2c1C(=O)CC(C)(C)C2 (stereo not shown) [RK-701]
binding to G9a by SPR (G9a SET domain): reversible binding
Kd (G9a SET domain; absence of SAM, read-out: Kd): 750 nM
Kd (G9a SET domain; earlier SPR conditions, peer review file, read-out: Kd before re-analysis): 2400 nM
Kd (G9a SET domain; [3]): 743 nM and 731 nM and 761 nM
IC50 (SMYD1; SMYD1, 1 μM SAM): 52.7 µM
IC50 (SMYD1; SMYD1, RK-701 in duplicate): 45 µM and 60.5 µM
γ-globin mRNA level ([1]; HUDEP-2): upregulated
β-globin expression in HUDEP-2 cells treated with RK-701 and decitabine [1, 4]: 1.116 and 1.192 and 1.151
γ-globin expression in HUDEP-2 cells treated with RK-701 and decitabine [1, 4]: 2.225 and 1.925 and 1.787
BGLT3 expression (BGLT3 RNA in CD34+ cells): induced BGLT3 expression

Cc1c(C(=O)N[C@H](CCC2CC2)C(=O)Nc2ccc(C#N)cc2)[nH]c2c1C(=O)CC(C)(C)C2 [RK-0133114]
binding to G9a by SPR (G9a SET domain): failed to detect the binding
Kd (G9a SET domain; mean of three kinetics runs, read-out: KD): > 20000 nM
Kd (G9a SET domain; [3]): > 20000 nM

Nc1ncnc2c1ncn2[C@@H]1O[C@H](CSCC[C@H](N)C(=O)O)[C@@H](O)[C@H]1O [SAH, S-(5'-Adenosyl)-L-homocysteine, reference compound]
IC50 (SMYD1; SMYD1, 1 μM SAM): 47.4 µM
IC50 (SMYD1; SMYD1, RK-701 in duplicate): 47.4 µM
